Measurements taken from US9573956B2, “Compounds as dual inhibitors of phosphodiesterases and histone deacetylases” (FUNDACIÓN PARA LA INVESTIGACIÓN MÉDICA APLICADA, priority 2013, dated 2017).

How the values were obtained:
HDAC1 = HDAC1 (Homo sapiens, UniProt Q13547); assay: HDAC enzyme activity assay (fluorogenic substrate), HDAC1; format: biochemical; details: recombinant enzyme; read-out: HDAC1 inhibition (IC50)
PDE5A = target: T1, PDE5A (Homo sapiens, UniProt O76074); assay: PDE enzyme activity assay (HTRF cGMP), PDE5A; format: biochemical; details: recombinant enzyme; read-out: PDE5A1 inhibition (IC50)
T1 construct: they are full-length with N-terminal GST tag; GST (N); purchased BPS Biosciences 60050; host or cells: baculovirus infected Sf9 cells

Chain of HDAC1 (Q13547 whole entry): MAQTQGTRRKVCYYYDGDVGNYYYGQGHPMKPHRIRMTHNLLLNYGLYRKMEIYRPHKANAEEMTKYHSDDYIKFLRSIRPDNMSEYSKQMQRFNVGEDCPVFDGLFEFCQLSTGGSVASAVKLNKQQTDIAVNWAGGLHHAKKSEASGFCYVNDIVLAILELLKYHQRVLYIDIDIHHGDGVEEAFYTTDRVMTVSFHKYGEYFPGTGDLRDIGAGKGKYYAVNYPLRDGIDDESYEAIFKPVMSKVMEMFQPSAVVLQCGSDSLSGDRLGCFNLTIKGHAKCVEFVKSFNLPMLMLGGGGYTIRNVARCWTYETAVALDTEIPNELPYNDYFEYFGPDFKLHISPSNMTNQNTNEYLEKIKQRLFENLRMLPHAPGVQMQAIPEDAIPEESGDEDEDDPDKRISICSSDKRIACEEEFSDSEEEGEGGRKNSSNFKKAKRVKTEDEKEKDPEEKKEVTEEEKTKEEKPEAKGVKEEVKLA

Row | SMILES | IC50 (HDAC1) [nM] | IC50 (PDE5A) [nM]
1 | O=C(NO)c1cnc(N2CCC(N3CC(=O)N4C(Cc5c([nH]c6ccccc56)C4c4ccc5c(c4)OCO5)C3=O)CC2)nc1 (racemic) [Example 4-03, N-Hydroxy-2-(4-[6-(1,3-benzodioxol-5-yl)-2,3,6,7,12,12a-hexahydropyrazino[1′,2′:1,6]pyrido[3,4-b]indole-1,4-dion-2-yl]piperidin-1-yl)pyrimidine-5-carboxamide] | 10 to 1000 | 10 to 1000
2 | CCCc1nn(C)c2c(=O)[nH]c(-c3cc(OCC4CCN(c5ncc(C(=O)NO)cn5)CC4)ccc3OCC)nc12 [Example 1-11, N-Hydroxy-2-(4-[3-(6,7-dihydro-1-methyl-7-oxo-3-propyl-1H-pyrazolo[4,3-d]pyrimidin-5-yl)-4-ethoxyphenoxymethyl]-piperidin-1-yl)pyrimidine-5-carboxamide] | 10 to 1000 | 1000 to 10000
3 | CCCc1nc(C)c2c(=O)[nH]c(-c3cc(S(=O)(=O)N4CCN(Cc5ccc(/C=C/C(=O)NO)cc5)CC4)ccc3OCC)nn12 [Example 2-01, (E)-3-[4-[[4-[4-Ethoxy-3-(5-methyl-4-oxo-7-propyl-3H-imidazo[5,1-f][1,2,4]triazin-2-yl)phenyl]sulfonylpiperazin-1-yl]methyl]phenyl]prop-2-enehydroxamic acid] | 1000 to 10000 | < 10
4 | O=C(/C=C/c1ccc(N2CC(=O)N3[C@H](c4ccc5c(c4)OCO5)c4[nH]c5ccccc5c4C[C@@H]3C2=O)cc1)NO [Example 4-01, (E)-N-Hydroxy-4-[6-(1,3-benzodioxol-5-yl)-2,3,6,7,12,12a-hexahydropyrazino[1′,2′:1,6]pyrido[3,4-b]indole-1,4-dion-2-yl]phenylprop-2-enamide] | > 10000 | 10 to 1000
5 | O=C(CCCN1CCC(N2CC(=O)N3[C@H](c4ccc5c(c4)OCO5)c4[nH]c5ccccc5c4C[C@@H]3C2=O)CC1)NO [Example 4-02] | > 10000 | 10 to 1000
6 | O=C(/C=C/c1ccc(CN2CCC(N3CC(=O)N4[C@H](c5ccc6c(c5)OCO6)c5[nH]c6ccccc6c5C[C@@H]4C3=O)CC2)cc1)NO [Example 4-04] | 10 to 1000 | 10 to 1000
7 | CCCc1nn(C)c2c(=O)[nH]c(-c3cc(S(=O)(=O)N4CCN(C)CC4)ccc3OCC)nc12 [Sildenafil, reference compound] | > 10000 | 
